Data reported in patent publication US11458118B2, “Methods and pharmaceutical compositions for the treatment of diseases associated with reduced CFTR function” (INSERM (INSTITUT NATIONAL DE LA SANTÉ ET DE LA RECHERCHE …, priority 2017, dated 2022).
Entries after “also recorded” stand apart in the source; their conditions may differ.

Assays:
F508del-CFTR [1] = assay: Whole-cell patch-clamp of CFTR Cl- channel activity in CFBE41o-/F508del cells; assay type: cell-based, human; settings: for increase of Cl- currents in treated vs untreated F508del-CFTR cells: pA/pF values at +80 mV
Method: (§1) The CFBE41o−cells purchased from Professor D. C.
Whole-cell patch-clamp recordings were obtained with the patch clamp system Port-a-Patch® (Nanion Technologies GmbH, Germany) as previously described [74;75]. Untreated or AEBSF treated cells were incubated with the external solution (140 mM NaCl, 2 mM CaCl2, 1 mM MgCl2, 10 mM Hepes, 5 mM D-glucose monohydrate, pH 7.4, 298 mOsmol) before recording. The internal solution used was 50 mM CsCl, 10 mM NaCl, 60 mM Cs-Fluoride, 20 mM EGTA, 10 mM Hepes/CsOH, and 5 mM Mg-ATP (Mg salt); pH 7.2; 285 mOsmol. CFTR activation and CFTR inhibition was done using the CFTR-activator ([…] and […] both from Sigma) and the CFTR-inhibitor ([…], Sigma) solution respectively, that were added to the external solution. Voltage steps (100 ms) from a holding potential of −80 mV, from −80 mV to +80 mV (10 mV increments) were applied. Data were captured using the Patchmaster program (Nanion Technologies GmbH, Germany) and currents normalized by membrane capacitances to remove variability due to differences in the cell sizes. Results were presented as graphic representations of I/V relationship and as bar graphs after statistical analysis of the normalized values, at +80 mV.

[2] = test system: S1P-mediated cleavage of ATF6; settings: from references [69], [78]; cited from earlier work
F508del-CFTR [3] = assay: Cell surface detection of CFTR in BHK cells expressing HA-tagged F508del-CFTR; assay type: cell-based, hamster; settings: for presence of F508del-CFTR within membranes: after treatment of cells expressing F508del-CFTR
Method: BHK cells stably expressing WT-CFTR or F508del-CFTR were graciously given by Dr. John W. Hanrahan (McGill University). A 3-Haemaglutinin (HA)-epitope tag was inserted in the fourth extracellular loop of CFTR in these cell lines. Cells were cultured in Dulbecco's modified Eagle medium (Lonza, Switzerland) supplemented with 10% fetal bovine serum. Cells were washed three times with cold 1×PBS (Eurobio, France) plus bovine serum albumine (BSA, 0.5%) and incubated 1 h at 4° C. with an anti-HA antibody (BioLegend, USA) diluted (1/250) in 1×PBS plus 0.5% BSA. Cells were washed three times with cold 1×PBS, scraped and centrifugated (300×g, 3 min, 4° C.). Cells pellets were suspended in RIPA buffer for 30 min on ice, centrifuged (16000×g, 15 min, 4° C.) and total protein concentration of supernatant was determined using Lowry's method, using BSA as a standard. Protein G magnetic beads (Thermo Fisher Scientific, USA) were equilibrated with cold RIPA buffer. Lysates were then incubated with the magnetic beads (100 μl of magnetic beads per mg of total protein) at 4° C. during for 2 h. Beads were then rinsed three times in cold RIPA buffer and proteins were eluted with 2× sample buffer containing 2-mercaptoethanol (20 min, 37° C.). […] Membrane was blocked with 5% (w/v) dried skimmed milk in PBS (0.1%) with Tween20, probed overnight at 4° C. with the anti-HA antibody (1/500) in 5% non-fat dried milk in PBST. Membranes were further washed and incubated 1 h at RT with HRP conjugated anti-mouse antibody (1/20000; Santa Cruz Biotechnology, USA). Blots were developed by enhanced chemiluminescence kit (ECL Plus, GE Healthcare, USA) and analyzed using Chemi-Smart 5100 ECL imaging system (Vilber Lourmat, Germany).

[4] = test system: cells expressing F508del-CFTR; assay: 2-DE and mass spectrometry of differentially expressed proteins after treatment; assay type: cell-based, human; settings: AEBSF treated vs untreated cell lysates, above 2 fold, MS identification
Method: 100 μg of total proteins from untreated or AEBSF treated cells were used for experiments. Each protein sample was first diluted in DeStreak Rehydration Solution (GE Healthcare, Chalfont St Giles, UK) which contains optimized concentrations of urea, thiourea, CHAPS, DeStreak Reagent and appropriate IPG buffer. Passive rehydration of Immobiline DryStrip gels (7 cm, pH 3-10 NL, GE Healthcare) with samples was performed during 8 hours. Once rehydration completed, Immobiline DryStrip gel are transferred in the Manifold on Ettan IPGphor 3 (GE Healthcare) for first dimension isoelectric focusing (IEF). IEF protocol used is divided in five steps: 1—Step 300 V, 200 Vhr; 2—Grad 1000 V, 300 Vhr; 3—Grad 5000 V, 4500 Vhr; 4—Step 5000V, 9000 Vhr; 5—Step 300V, 12-15 h. Second-dimension separation is performed immediately after IEF is completed. Immobiline DryStrip gels are equilibrated (15 min at room temperature) in two SDS equilibration buffers (6 M urea, 75 mM Tris-HCl pH=8.8, 30% Glycerol, 2% SDS, 0.0002% bromophenol blue+DTT or iodoacetamide) before SDS-PAGE. Electrophoresis was performed with lab-cast gels (1 mm, Bis-Tris 10%) in 1× Tris-Glycine-SDS buffer (BioRad, Hercules, Calif., USA) at 120 V for 2 h 30. […] Gel alignment, spot detection and quantification were done using the PDQuest software (PDQuest Basic-8.0.1, BioRad). […]

ATF6 = ATF6 expression and activation by western blot (total lysates, nuclear fractions) in cells expressing F508del-CFTR; assay type: cell-based, human; settings: 300 μM AEBSF
Method: as §1
(§2) Untreated or AEBSF treated cells were rinsed twice with cold PBS. For total cell lysate preparation, cells were lysed in RIPA buffer (25 mM Tris-HCl pH 7.5, 150 mM NaCl, 1% Triton X-100, 1% Na-Deoxycholate, 0.1% SDS, 10 mM iodoacetamide, 100 μM PMSF) supplemented with fresh protease-inhibitor cocktail (Complete tablets—EDTA free, Roche, Basel, Switzerland) added extemporaneously at a final concentration of 40 μl/ml (30 min on ice). Lysates were centrifugated (15 min, 16000 g, 4° C.). For nuclear preparation, cells were washed twice with cold PBS, and lysed with buffer A (10 mM HEPES pH 7.9, 1.5 mM MgCl2, 10 mM KCl, 2 mM EDTA, 0.5 mM DTT, 0.20% NP40 and protease-inhibitor cocktail) during 15 min at 4° C. Lysates were then centrifuged (1,500×g, 2 min, 4° C.) and the supernatants (cytosolic fraction) were removed in a new tube. The pellet was washed twice in buffer B (Buffer A without NP40) and lysed with buffer C (20 mM HEPES pH 7.9, 1.5 mM MgCl2, 450 mM KCl, 2 mM EDTA, 2 mM EGTA, 0.5 mM DTT, 25% Glycerol and protease-inhibitor cocktail) during 1 h vortexing 2200 rpm. Lysates were then centrifuged (14,000×g, 10 min, 4° C.) and supernatant (nuclear fraction) was removed in a new tube. Protein concentrations were determined using Lowry's methodology with the bovine serum albumin used as a standard.
For each sample equal amount of total or nuclear proteins was loaded on a polyacrylamide gel and resolved by SDS-PAGE (10%). Samples were then transferred onto a PVDF membrane (EMD Millipore, Billerica, Mass., United States). After blotting, membranes were blocked with 5% (w/v) non-fat dried skimmed milk in PBS-0.1% Tween20 (PBST). Blots were then probed overnight at 4° C. with the primary antibodies listed hereafter: Rabbit polyclonal anti-ATF6 antibody (#09-069, EMD Millipore), Rabbit polyclonal anti-S1P antibody (H-300) (#SC-20757, SantaCruz Biotechnology), Rabbit polyclonal anti-GRP78 antibody (H-129) (#SC-13968, SantaCruz Biotechnology). Membranes were further incubated 1 h at room temperature with the appropriate horseradish peroxidase (HRP) conjugated secondary antibody diluted in PBST (1/20,000): Goat anti-rabbit (#A0545, Servilab). Blots were developed by enhanced chemiluminescence kit (ECL Plus, GE Healthcare) and analyzed using Chemi-Smart 5100 ECL imaging system (Vilber Lourmat). The relative intensity of each band was quantified by densitometry using BIO-1D software (Vilber Lourmat). Each value was normalized by blue coomassie staining or the G3PDH signal obtained in the same lane on the same blot probed with mouse monoclonal antibody anti-G3PDH (#H86504M, Meridian Life Science®, Inc.) diluted in PBST (1/30,000).

BiP = BiP expression by western blot in cells expressing F508del-CFTR (UPR reporter); assay type: cell-based, human; settings: 300 μM AEBSF, total cell lysates
Method: as §1
as §2, with “The pellet was washed twice in buffer B (Buffer A without NP40) and lysed with buffer C (20 mM HEPES pH 7.9, 1.5 mM MgCl2, 450 mM KCl, 2 mM EDTA, 2 mM EGTA, 0.5 mM DTT, 25% Glycerol and protease-inhibitor cocktail) during 1 h vortexing 2200 rpm. Lysates were then centrifuged (14,000×g, 10 min, 4° C.) and supernatant (nuclear fraction) was removed in a new tube.” left out
(§3) For each sample equal amount of total or nuclear proteins was loaded on a polyacrylamide gel and resolved by SDS-PAGE (10%). […] Blots were developed by enhanced chemiluminescence kit (ECL Plus, GE Healthcare) and analyzed using Chemi-Smart 5100 ECL imaging system (Vilber Lourmat). The relative intensity of each band was quantified by densitometry using BIO-1D software (Vilber Lourmat). […]

S1P = S1P expression by western blot in cells expressing F508del-CFTR; assay type: cell-based, human; settings: 300 μM AEBSF, total cell lysates
Method: as §1
as §2, with “The pellet was washed twice in buffer B (Buffer A without NP40) and lysed with buffer C (20 mM HEPES pH 7.9, 1.5 mM MgCl2, 450 mM KCl, 2 mM EDTA, 2 mM EGTA, 0.5 mM DTT, 25% Glycerol and protease-inhibitor cocktail) during 1 h vortexing 2200 rpm. Lysates were then centrifuged (14,000×g, 10 min, 4° C.) and supernatant (nuclear fraction) was removed in a new tube.” left out
as §3

[5] = test system: cells expressing Wt-CFTR and F508del-CFTR; assay: Cell toxicity observed in treated cells; settings: in the used concentration (300 μM AEBSF; 10 μM PF-429242)
Method: The CFBE41o−cells purchased from Professor D. C. Gruenert (San Francisco, Calif., U.S.A.) were human bronchial epithelial cells endogenously expressing the F508del-CFTR obtained from a CF patient homozygous for the F508del mutation [51;52]. The cells used in experiments were the transduced CFBE41o−/WT also called CFBE41o−/corrected (CFBE41o−/corr) and CFBE41o−/F508del cells, and were cultured as previously described. These cells will be also called cells expressing Wt-CFTR and cells expressing F508del-CFTR in the manuscript. Cell culture media and supplements were purchased from Lonza (Basel, Switzerland) and CliniSciences (Nanterre, France). To inhibit ATF6 activation, cells were incubated with 300 μM of the serine protease inhibitor 4-(2-Aminoethyl) benzenesulfonyl fluoride hydrochloride (AEBSF) purchased from Servilab. In some experiments, ATF6 activation was blocked by the use of 10 μM PF-429242 (4-[(Diethylamino)methyl]-N-[2-(2-methoxyphenyl)ethyl]-N-(3R)-3-pyrrolidinylbenzamide, from Tocris).

Compound	increase of Cl- currents in treated vs untreated F508del-CFTR cells (F508del-CFTR [1]; 10 μM PF-429242, 8 hours)	mean cell Cl- currents (function of F508del-CFTR) (F508del-CFTR [1]; CFBE41o-/F508del cells, 10 μM PF-429242, 8 hours, at +80 mV, untreated 32.98±14.71)	inhibition of ATF6 cleavage upon ER stress [2]	presence of F508del-CFTR within membranes (F508del-CFTR [3])	increase of Cl- currents in treated vs untreated F508del-CFTR cells (F508del-CFTR [1]; 300 μM AEBSF, 8 hours)	fold increase of the F508del-CFTR's Cl- function (F508del-CFTR [1]; 300 μM AEBSF, 8 hours, vs untreated cells)	mean cell Cl- currents (F508del-CFTR [1]; CFBE41o-/F508del cells, 300 μM AEBSF, 8 hours, at +80 mV, untreated 32.98±14.71, Wt-CFTR 118.8±21.09)	differentially expressed proteins after treatment [4]	ATF6 activation (cleaved form in nuclear fraction) compared to the zero time point (ATF6; nuclear fractions)	cleaved 50 kDa ATF6 in nuclear fraction, treated vs untreated cells for each time point (ATF6; nuclear fractions)	full length ATF6 expression compared to the zero time point (ATF6; total cell lysates)	full length ATF6 expression, treated vs untreated cells for each time point (ATF6; total cell lysates)	BiP expression, treated vs untreated cells for each time point (BiP)	BiP expression over time in treated cells (BiP; over time)	S1P expression over time in treated cells (S1P; 0.5, 1, 2, 4 or 8 hours, CFBE41o-/F508del cells, hydrochloride)	S1P expression, treated vs untreated cells for each time point (S1P; F508del-CFTR cells)	cell toxicity [5]	mature form of CFTR (C band, 170 kDa) at the cell surface (F508del-CFTR [3]; BHK cells expressing HA-tagged F508del-CFTR, anti-HA pull-down and immunoblot)
CCN(CC)Cc1ccc(C(=O)N(CCc2ccccc2OC)[C@@H]2CCNC2)cc1 [PF-429242, 4-[(Diethylamino)methyl]-N-[2-(2-methoxyphenyl)ethyl]-N-(3R)-3-pyrrolidinylbenzamide]	+152%	82.67±22.26 pA/pF	efficiently blocks the S1P-mediated cleavage of ATF6 upon ER stress	increase the presence of F508del-CFTR within membranes	–	–	–	–	–	–	–	–	–	–	–	–	–	–
Cl.NCCc1ccc(S(=O)(=O)F)cc1 [AEBSF, 4-(2-Aminoethyl) benzenesulfonyl fluoride hydrochloride]	–	–	inhibit the proteolysis of ATF6	increase the presence of F508del-CFTR within membranes	+153%	2.5 fold	83.42±11.51 pA/pF	HNRNPH1 and HNRH3 were decreased and that PDIA3 (Grp58), HSP7C, GRP75 and HSP71 were increased	significant decreases at the 2 and 4 hours treatment	significant decreased expression of the 50 kDa form of ATF6, from 1 to 8 hours	significant increased expression was observed after 4 and 8 hours of treatment	significant decreases after 0.5, 1 and to 2 hours and a significant increase after 8 hours	Significant decreases at the 4 and 8 hours time points	significant decrease of BiP expression was observed after 4 hours of treatment	significance was only observed at the 2 hours time point; also recorded: no significant variation was observed over time except for the 2 hours time point	no significant difference	No obvious cell toxicity was observed	only observed after AEBSF treatment
